One block for each compound: values may come before it.
Columns and labels:
OTR [1] = biological target: T1, OTR (Homo sapiens, UniProt P30559); assay: Tritiated OT (3H-OT) displacement; assay type: binding; parameters: expressed in transfected cells; host or cells: HEK cells, Flp-In TREX system (Invitrogen); settings: Kd concentration of 3H-OT; compound at a concentration up to 10 μM
T1 sequence (P30559 1-389): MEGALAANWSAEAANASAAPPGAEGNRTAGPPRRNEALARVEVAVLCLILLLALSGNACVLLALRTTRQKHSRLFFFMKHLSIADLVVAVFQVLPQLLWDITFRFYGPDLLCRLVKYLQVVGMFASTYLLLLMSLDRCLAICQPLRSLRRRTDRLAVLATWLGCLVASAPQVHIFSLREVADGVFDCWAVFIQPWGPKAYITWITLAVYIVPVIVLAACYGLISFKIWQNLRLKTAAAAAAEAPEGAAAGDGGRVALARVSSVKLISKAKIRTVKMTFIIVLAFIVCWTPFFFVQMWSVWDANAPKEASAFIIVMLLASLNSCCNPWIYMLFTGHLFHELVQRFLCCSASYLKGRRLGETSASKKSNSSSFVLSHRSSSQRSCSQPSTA

OTR [2] = biological target: T1, OTR; assay: Modulation of oxytocin-evoked intracellular IP1 and Ca2+ increase: OT dose-response in presence and absence of 10 μM compound; settings: for change in OT potency seen in OT dose-response curves (figure legend): 10 μM of compound; for Relative Potency: OT potency with 10 μM compound relative to OT only
Procedure: These assays were performed using commercial kits (IP1 HTRF from Cisbio and Fluo-4AM from Invitrogen), according to the manufacturer's protocol.

OTR [3] = biological target: T1, OTR; assay: Calcium (Ca2+) influx induced by OT in the presence of various concentrations of compound 3 (HEK assay); assay type: cell-based; parameters: expressed in transfected cells; host or cells: HEK cells, Flp-In TREX system (Invitrogen)
rat V1aR = rat V1aR (Rattus norvegicus, UniProt P30560); settings: cited from earlier work
human V1aR = human V1aR (Homo sapiens, UniProt P37288); settings: cited from earlier work
[4] = in vivo; cited from earlier work
[5] = rat, in vivo; cited from earlier work

human V1aR, sequence (P37288 whole entry): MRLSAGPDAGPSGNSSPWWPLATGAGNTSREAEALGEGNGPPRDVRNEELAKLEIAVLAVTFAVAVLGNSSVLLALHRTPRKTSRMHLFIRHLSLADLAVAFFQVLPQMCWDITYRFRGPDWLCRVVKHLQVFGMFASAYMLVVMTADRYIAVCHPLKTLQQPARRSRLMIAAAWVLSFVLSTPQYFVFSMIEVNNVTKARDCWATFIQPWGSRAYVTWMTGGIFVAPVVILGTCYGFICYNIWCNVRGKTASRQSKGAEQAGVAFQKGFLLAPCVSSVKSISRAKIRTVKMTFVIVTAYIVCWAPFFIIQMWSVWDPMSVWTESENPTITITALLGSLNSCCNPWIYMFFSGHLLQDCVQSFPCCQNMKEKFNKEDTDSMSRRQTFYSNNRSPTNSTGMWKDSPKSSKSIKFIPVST
rat V1aR, sequence (P30560 whole entry): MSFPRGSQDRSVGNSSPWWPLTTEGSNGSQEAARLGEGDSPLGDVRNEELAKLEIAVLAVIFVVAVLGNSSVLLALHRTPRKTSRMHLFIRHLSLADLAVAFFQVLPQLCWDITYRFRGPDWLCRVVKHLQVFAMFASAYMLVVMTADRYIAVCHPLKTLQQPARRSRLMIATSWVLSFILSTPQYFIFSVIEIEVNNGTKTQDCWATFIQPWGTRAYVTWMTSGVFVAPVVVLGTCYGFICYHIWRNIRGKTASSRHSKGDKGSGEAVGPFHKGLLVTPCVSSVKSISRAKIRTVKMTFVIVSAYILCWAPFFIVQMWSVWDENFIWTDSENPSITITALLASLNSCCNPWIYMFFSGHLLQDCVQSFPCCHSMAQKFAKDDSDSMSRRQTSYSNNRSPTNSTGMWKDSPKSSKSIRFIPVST

- melting point: 152.6 to 153.2 °C
- change in OT potency seen in OT dose-response curves (figure legend) (OTR [2]): improvement in OT potency
- Relative Potency (OTR [2]; Table 2 group): 10.4
Compound: Cn1ncc2c1c1ccccc1n2C(=O)c1ccccc1 [Compound 1]
- displacement of the binding of 3H-OT (OTR [1]): None of compounds 1, 2 or 3 displaced ^3H-OT

- melting point: 91.1 to 92.8 °C
- change in OT potency seen in OT dose-response curves (figure legend) (OTR [2]): improvement in OT potency
- Relative Potency (OTR [2]; Table 2 group): 8.4
Compound: Cn1ncc2c1c1ccccc1n2C(=O)c1cccc(F)c1 [Compound 2]
- displacement of the binding of 3H-OT (OTR [1]): None of compounds 1, 2 or 3 displaced ^3H-OT

- Relative Potency (OTR [3]; OT + 0.01 μM compound 3, relative to 0 μM): 0.64
- Relative Potency (OTR [3]; OT + 0.03 μM compound 3, relative to 0 μM): 0.47
- Relative Potency (OTR [3]; OT + 0.3 μM compound 3, relative to 0 μM): 2.83
- Relative Potency (OTR [3]; OT + 1 μM compound 3, relative to 0 μM): 3.90
- Relative Potency (OTR [3]; OT + 10 μM compound 3, relative to 0 μM): 19.0
- melting point: 140.3 to 141.2 °C
- change in OT potency seen in OT dose-response curves (figure legend) (OTR [2]): improvement in OT potency
- Relative Potency (OTR [2]; Table 2 group): 5.5
Compound: Cn1ncc2c1c1ccccc1n2C(=O)C1CCCCC1 [Compound 3]
- displacement of the binding of 3H-OT (OTR [1]): None of compounds 1, 2 or 3 displaced ^3H-OT

- melting point: 167 to 169 °C
- change in OT potency seen in OT dose-response curves (figure legend) (OTR [2]): improvement in OT potency
- Relative Potency (OTR [2]; Table 3 group): 2.9
Compound: Cc1ccc(C(=O)n2c3ccccc3c3c2cnn3C)cc1 [Compound 4]

- melting point: 145 to 147 °C
- change in OT potency seen in OT dose-response curves (figure legend) (OTR [2]): improvement in OT potency
- Relative Potency (OTR [2]; Table 3 group): 3.1
Compound: Cn1ncc2c1c1ccccc1n2C(=O)c1ccc(Cl)cc1 [Compound 5]

- melting point: 142 to 143 °C
- change in OT potency seen in OT dose-response curves (figure legend) (OTR [2]): improvement in OT potency
- Relative Potency (OTR [2]; Table 3 group): 2.9
Compound: Cn1ncc2c1c1ccccc1n2C(=O)c1ccc(Cl)c(Cl)c1 [Compound 6]

- melting point: 136 to 138 °C
- change in OT potency seen in OT dose-response curves (figure legend) (OTR [2]): improvement in OT potency
- Relative Potency (OTR [2]; Table 7 group): 2.1
Compound: COc1ccc(C(=O)n2c3ccccc3c3c2cnn3C)cc1 [Compound 7]

- change in OT potency seen in OT dose-response curves (figure legend) (OTR [2]): improvement in OT potency
- Relative Potency (OTR [2]; Table 7 group): 2.5
Compound: Cn1ncc2c1c1ccccc1n2C(=O)c1ccc(F)cc1 [Compound 10]

- change in OT potency seen in OT dose-response curves (figure legend) (OTR [2]): improvement in OT potency
- Relative Potency (OTR [2]; Table 4 group): 2.3
Compound: Cn1ncc2c1c1ccccc1n2C(=O)C1CCCC1 [Compound 12]

- change in OT potency seen in OT dose-response curves (figure legend) (OTR [2]): improvement in OT potency
- Relative Potency (OTR [2]; Table 4 group): 2.5
Compound: Cn1ncc2c1c1ccccc1n2C(=O)C1CCCCCC1 [Compound 13]

- change in OT potency seen in OT dose-response curves (figure legend) (OTR [2]): improvement in OT potency
- Relative Potency (OTR [2]; Table 7 group): 2.6
Compound: CCCCC(=O)n1c2ccccc2c2c1cnn2C [Compound 14]

- change in OT potency seen in OT dose-response curves (figure legend) (OTR [2]): improvement in OT potency
- Relative Potency (OTR [2]; Table 7 group): 2.6
Compound: Cn1ncc2c1c1ccccc1n2C(=O)C1CCOCC1 [Compound 16]

Compound: Cn1ncc2c1c1ccccc1n2C(=O)C12CC3CC(CC(C3)C1)C2 [Compound 23]
- change in OT potency seen in OT dose-response curves (figure legend) (OTR [2]): improvement in OT potency
- Relative Potency (OTR [2]; Table 4 group): 3.4

- change in OT potency seen in OT dose-response curves (figure legend) (OTR [2]): improvement in OT potency
- Relative Potency (OTR [2]; Table 8 group, n = 2): 2.8
Compound: Cn1ncc2c1c1ccccc1n2C(=O)c1cccc2ncccc12 [Compound 29]

- Relative Potency (OTR [2]; Table 5 group): 5.0
Compound: Cn1ncc2c3ccccc3n(C(=O)c3ccccc3)c21 [Compound 31]

- Relative Potency (OTR [2]; Table 5 group): 3.4
Compound: Cn1ncc2c3ccccc3n(C(=O)c3cccc(F)c3)c21 [Compound 32]

- Relative Potency (OTR [2]; Table 5 group): 3.7
Compound: Cn1ncc2c3ccccc3n(C(=O)C3CCCCC3)c21 [Compound 33]

- change in OT potency seen in OT dose-response curves (figure legend) (OTR [2]): improvement in OT potency
- Relative Potency (OTR [2]; Table 9 group): 3.7
Compound: Cn1ccc2c1c1ccccc1n2C(=O)C1CCCCC1 [Compound 35]

- change in OT potency seen in OT dose-response curves (figure legend) (OTR [2]): improvement in OT potency
- Relative Potency (OTR [2]; Table 6 group): 2.3
Compound: Cn1ncc2c1c1ccccc1n2C(=O)N1CCCCC1 [Compound 42]

- change in OT potency seen in OT dose-response curves (figure legend) (OTR [2]): improvement in OT potency
- Relative Potency (OTR [2]; Table 6 group): 2.6
Compound: Cn1ncc2c1c1ccccc1n2S(=O)(=O)C1CCCCC1 [Compound 43]

Compound: CC[C@H](C)[C@@H]1NC(=O)[C@H](Cc2ccc(O)cc2)NC(=O)[C@@H](N)CSSC[C@@H](C(=O)N2CCC[C@H]2C(=O)N[C@@H](CC(C)C)C(=O)NCC(N)=O)NC(=O)[C@H](CC(N)=O)NC(=O)[C@H](CCC(N)=O)NC1=O [OT, Oxytocin]
- affinity of OT at V1aR (rat V1aR): 78 nM
- affinity of OT at V1aR (human V1aR): 120 nM
- fraction of intranasal OT that enters the brain [4]: 0.002-0.005%
- half-life in blood [5]: 3 to 8 min
